Measurements: patent US8404664B2, “Phosphonated Rifamycins and uses thereof for the prevention and treatment of bone and joint infections” (Targanta Therapeutics, Inc., priority 2005, dated 2013)
In brackets after ≈: the same amount, converted by molar mass. Several values for one entry are separate records, joined by “and”; a condition that tells them apart may be missing. Equal values may be shown once.

How the values were obtained:
S. aureus ATCC 13709 [1] = assay: Antibacterial susceptibility (MIC), NCCLS broth microdilution; type: cell-based; conditions: for Antibacterial activity (in words, summary of Table 1): summary over the strains of Table 1; for MIC: Staphylococcus aureus, ATCC13709, read-out: Minimum inhibitory concentration, S. aureus ATCC 13709
Procedure: (§1) Susceptibility of S. aureus strains to the known antibiotics and synthesized compounds was determined by following the guidelines set by NCCLS (M26-A). Compounds were diluted two-fold serially in DMSO and transferred to cation-adjusted Mueller Hinton broth (CAMHB; Becton Dickinson). 50 μL of compounds diluted in CAMHB was mixed with 100 μL of bacteria diluted in CAMHB in 96-well microtiter plates. The final concentration of micro-organisms in the assay was 5×10^5 c.f.u. per mL and the final concentration of DMSO in the assay was 1.25%. Assays were set up in duplicate and incubated at 37° C. for 18 h. The lowest concentration of compound that inhibited visible growth was reported as the minimum inhibitory concentration (MIC).

[2] = system: S. aureus ATCC 43300 (Fluoroquinolone sensitive MRSA); assay: as above; type: cell-based; conditions: for MIC: Staphylococcus aureus, read-out: Minimum inhibitory concentration, S. aureus ATCC 43300
Procedure: as §1

[3] = system: S. aureus BK85 (Fluoroquinolone resistant MRSA); assay: as above; type: cell-based; conditions: for MIC: Staphylococcus aureus, read-out: Minimum inhibitory concentration, S. aureus BK85
Procedure: as §1

S. aureus RN4220 = assay: as above; type: cell-based; conditions: CAMHB, 37° C., 18 h; for MIC: Staphylococcus aureus, RN4220, read-out: Minimum inhibitory concentration, S. aureus RN4220
Procedure: as §1

[4] = system: S. aureus ATCC 13709 Novobiocin and Rifampicin resistant variant; assay: microbe, parasite or virus in culture; type: cell-based; conditions: for Minimum inhibitory concentration, S. aureus ATCC 13709 variant: Novobiocin and Rifampicin resistant variant
Procedure: as §1

S. aureus ATCC 13709 [5] = assay: Antibacterial susceptibility (MIC) in the presence of serum; type: cell-based; conditions: for MIC: Staphylococcus aureus, ATCC13709, 18 h
Procedure: as §1
Susceptibility testing experiments were also carried out in the presence of serum.
These experiments were carried out similar to the susceptibility testing with the following modifications. 75 μL of compounds diluted in CAMHB was mixed with 75 μL of bacteria diluted in 100% serum from any given source (commercial pooled mouse serum (MS) and human serum (HS), Equitech-Bio Inc.) or diluted in 8% purified human serum albumin (HSA) (Calbiochem). The final concentration of animal serum in the assay was 50% and the final concentration of purified human serum albumin in the assay was 4%; the concentrations of all other components were identical to those described for susceptibility testing.

[6] = system: E. coli LBB925 (tolC mutant); assay: Antibacterial susceptibility (MIC), NCCLS broth microdilution; type: cell-based; conditions: for Minimum inhibitory concentration, E. coli LBB925: tolC mutant; for MIC: Escherichia coli, read-out: Minimum inhibitory concentration, E. coli LBB925
[7] = Regeneration of drug from bone powder-bound prodrug; type: in vitro ADME
Procedure: Amounts of parent drug “regenerated” from the phosphonated prodrug were measured as follows. Washed bone powder-bound prodrugs from the above experiment were resuspended in 400 μL PBS+2% DMSO or in 400 μL 50% (v/v in PBS+2% DMSO) human or rat serum. The suspension was incubated overnight at 37° C., centrifuged at 13,000 rpm for 2 min and the supernatant was recovered. The amount of regenerated parent drug in the supernatant was determined by measurements using the microbiological assay that was previously described for the prodrugs themselves. The amount of prodrug was deduced from standard curves of known amounts of parent drug that were used as reference for each experiment.

[8] = system: S. aureus ATCC 13709 Novobiocin resistant mutant (bone infection); assay: Prophylactic efficacy in rat model of S. aureus bone infection; type: in vivo; conditions: rat tibia 24 h postinfection
Procedure: Specifically, a spontaneous Novobiocin resistant mutant strain of S. aureus ATCC 13709 (a clinical osteomyelitis isolate), was grown overnight at 37° C. in brain heart infusion broth (BHIB). After 16 h of growth, cells were subcultured into fresh BHIB and incubated for 4 to 5 h at 37° C. The cells were washed twice with phosphate-buffered saline (PBS) and resuspended in BHIB supplemented with 10% (vol./vol.) fetal bovine serum at a density of approximately 10^10 colony forming units (CFU)/ml (based upon turbidimetry). The suspension was aliquoted and a portion was used to check the CFU count. The culture was stored frozen (−80° C.) and was used without subculture. For use as an inoculum the culture was thawed, diluted in PBS and kept in an ice bath until it was used.
Animals were infected as described by O'Reilly et al. (Antimicrobial Agents and Chemotherapy (1992), 36(12): 2693-97) to generate the bone infection. Female CD rats (age, 57 to 70 days; n=5/group; Charles River, St-Constant, Canada) were anaesthetized by isofluorane before and during the surgery. Following complete induction of anesthesia, the rat was placed ventral side up and hair was shaved from the surgical site. The skin over the leg was cleaned and disinfected (proviodine-ethanol 70%). A longitudinal incision below the knee joint was made in the sagital plane. The incision was made over the bone below the “knee joint” (tibia head or condyle) but not completely extending to the ankle. A high speed drill fitted with a 2 mm bulb bit was used to drill a hole into the medullar cavity of the tibia. Rats were injected intra-tibially with 0.05 ml 5% sodium morrhuate (sclerosing agent) and then with 0.05 ml of S. aureus suspension (ca. 2×10^7 CFU/rat). The hole was sealed by applying a small amount of dry dental cement which immediately absorbs fluids and adheres to the site. The wound was closed using 3 metal skin clips. Moxifloxacin (as a positive control) was injected once at 10 mg/kg intravenously 1 h postinfection in saline, while the Rifamycin derived prodrugs (prepared in 0.9% saline) were injected at the dose indicated in Table 3 as a single intravenous bolus at different time points prior to the infection.
Infected rats were sacrificed by CO2 asphyxiation 24 h postinfection to monitor the bacterial CFU count. Infected tibiae were removed, dissected free of soft tissue, and weighed. The bones were ground, resuspended in 5 ml 0.9% NaCl, serially diluted and processed for quantitative cultures. For compounds 50, 68 and 81, 1 ml of the 0.9% NaCl solution was added to 50 mg of charcoal before serial dilutions. Treatment efficacy was measured in terms of Log viable bacteria (Log CFU per gram of bone). […] The limit of detection is 2 Log CFU. […] Differences were considered significant when the P value was <0.05 when comparing treated infected animals to the untreated infected ones. The doses used, the amount of time separating the treatment from the time of infection and the treatment outcomes are shown in Table 3.

[9] = read-out: Minimum inhibitory concentration, S. aureus ATCC 13709 + 50% Human Serum
[10] = read-out: Minimum inhibitory concentration, S. aureus ATCC 13709 + 50% Mouse Serum
[11] = read-out: Minimum inhibitory concentration, S. aureus ATCC 13709 + 50% Rat Serum

| Structure (SMILES) | Minimum inhibitory concentration, S. aureus ATCC 13709 (S. aureus ATCC 13709 [1]) [µg/mL] | Antibacterial activity (in words, summary of Table 1) (S. aureus ATCC 13709 [1]) | Minimum inhibitory concentration, S. aureus ATCC 43300 [2] [µg/mL] | Minimum inhibitory concentration, S. aureus BK85 [3] [µg/mL] | Minimum inhibitory concentration, S. aureus RN4220 (S. aureus RN4220) [µg/mL] | Activity against the Rifampicin resistant variant of S. aureus ATCC13709 (in words) [4] | Minimum inhibitory concentration, S. aureus ATCC 13709 variant [4] [µg/mL] | Impact of serum on the MICs (in words) (S. aureus ATCC 13709 [5]) | Minimum inhibitory concentration, S. aureus ATCC 13709 + 50% Human Serum (S. aureus ATCC 13709 [5]) [µg/mL] | Minimum inhibitory concentration, S. aureus ATCC 13709 + 50% Mouse Serum (S. aureus ATCC 13709 [5]) [µg/mL] | Minimum inhibitory concentration, S. aureus ATCC 13709 + 50% Rat Serum (S. aureus ATCC 13709 [5]) [µg/mL] | Minimum inhibitory concentration, E. coli LBB925 [6] [µg/mL] | MIC (S. aureus ATCC 13709 [1]) [µg/mL] | MIC [2] [µg/mL] | MIC (S. aureus RN4220) [µg/mL] | MIC (S. aureus ATCC 13709 [5]; [9]) [µg/mL] | MIC (S. aureus ATCC 13709 [5]; [10]) [µg/mL] | MIC (S. aureus ATCC 13709 [5]; [11]) [µg/mL] | MIC [6] [µg/mL] | MIC [3] [µg/mL] | also measured |
| --- | --- | --- | --- | --- | --- | --- | --- | --- | --- | --- | --- | --- | --- | --- | --- | --- | --- | --- | --- | --- | --- |
| CCN(CC)CC.CCN(CC)CC.CO[C@H]1/C=C/O[C@@]2(C)Oc3c(C)c(O)c4c(c3C2=O)C2=NC3(CCN(CC(C)C)CC3)NC2=C(NC(=O)/C(C)=C\C=C\[C@H](C)[C@H](OC(=O)CCC(=O)NC(P(=O)(O)O)P(=O)(O)O)[C@@H](C)[C@@H](O)[C@@H](C)[C@H](OC(C)=O)[C@@H]1C)C4=O [Compound 39, 21-O-(3-((bisphosphonomethyl)carbamoyl)propanoyl)-1′,4-didehydro-1-deoxy-1,4-dihydro-5′-(2-methylpropyl)-1-oxorifamycin XIV] | >128 | near complete loss of activity | >128 | >128 | >128 | complete lack of activity | >128 | no impact | >128 | >128 | 64 | 128 |  |  |  |  |  |  |  |  | Regeneration of parent drug once bound to bone (in words) [7]: not able to regenerate |
| CCN(CC)CC.CCN(CC)CC.CO[C@H]1/C=C/O[C@@]2(C)Oc3c(C)c(O)c4c(c3C2=O)C2=NC3(CCN(CC(C)C)CC3)NC2=C(NC(=O)/C(C)=C\C=C\[C@H](C)[C@H](OC(=O)CCCOC(=O)CCC(=O)NC(P(=O)(O)O)P(=O)(O)O)[C@@H](C)[C@@H](O)[C@@H](C)[C@H](OC(C)=O)[C@@H]1C)C4=O [Compound 54, 21-O-(4-((3-(bisphosphonomethyl)carbamoyl)propanoyloxy)butanoyl)-1′,4-didehydro-1-deoxy-1,4-dihydro-5′-(2-methylpropyl)-1-oxorifamycin XIV] | 64 | near complete loss of activity | 64 | 64 | 64 | complete lack of activity | >128 | no impact | >128 | >128 | >128 | >128 |  |  |  |  |  |  |  |  |  |
| CO[C@H]1/C=C/O[C@@]2(C)Oc3c(C)c(O)c4c(=O)c(c5oc6cc(N7CCN(CCO)CC7)cc(O)c6nc-5c4c3C2=O)NC(=O)/C(C)=C\C=C\[C@H](C)[C@H](O)[C@@H](C)[C@@H](O)[C@@H](C)[C@H](OC(C)=O)[C@@H]1C [Compound 56, 1′,4-Didehydro-1-deoxy-1,4-dihydro-3′-hydroxy-5′-[4-(2-hydroxyethyl)-1-piperazinyl]-1-oxorifamycin VIII] |  |  |  |  |  |  |  |  |  |  |  |  | 0.00025 (≈ 0.269 nM) | 0.00025 (≈ 0.269 nM) | 0.00025 (≈ 0.269 nM) | 0.001 | 0.002 | 0.002 | 8 (≈ 8610 nM) |  | Measured bacterial titer ([8]; single dose 20 mg/kg parent drug equivalent, 2 days prior to infection): 3.61 ± 1.57 Log CFU/g of bone |
| CO[C@H]1/C=C/O[C@@]2(C)Oc3c(C)c(O)c4c(=O)c(c5oc6cc(N7CCNCC7)cc(O)c6nc-5c4c3C2=O)NC(=O)/C(C)=C\C=C\[C@H](C)[C@H](O)[C@@H](C)[C@@H](O)[C@@H](C)[C@H](OC(C)=O)[C@@H]1C [Compound 69, 1′,4-Didehydro-1-deoxy-1,4-dihydro-3′-hydroxy-5′-[1-piperazinyl]-1-oxorifamycin VIII] |  |  |  |  |  |  |  |  |  |  |  |  | 0.00048 (≈ 0.542 nM) |  |  | 0.0019 | 0.0019 | 0.0019 | 4 (≈ 4520 nM) | 0.00024 (≈ 0.271 nM) |  |
| COc1c(N2C[C@@H]3CCCN[C@@H]3C2)c(F)cc2c(=O)c(C(=O)O)cn(C3CC3)c12 [Moxifloxacin, reference compound] |  |  |  |  |  |  |  |  |  |  |  |  |  |  |  |  |  |  |  |  | Measured bacterial titer, positive control ([8]; 10 mg/kg intravenously once, 1 h postinfection, 10 mg/kg): 2.36 ± 0.21 Log CFU/g of bone and 2.53 ± 0.39 Log CFU/g of bone and 2.59 ± 0.56 Log CFU/g of bone and 2.46 ± 0.52 Log CFU/g of bone and 2.56 ± 0.64 Log CFU/g of bone and 2.20 ± 0.33 Log CFU/g of bone and 2.32 ± 0.33 Log CFU/g of bone and 2.06 ± 0.04 Log CFU/g of bone |
| CO[C@H]1/C=C/O[C@@]2(C)Oc3c(C)c(O)c4c(O)c(c(/C=N/N5CCN(C)CC5)c(O)c4c3C2=O)NC(=O)/C(C)=C\C=C\[C@H](C)[C@H](O)[C@@H](C)[C@@H](O)[C@@H](C)[C@H](OC(C)=O)[C@@H]1C [Rifampicin, reference compound] |  |  |  |  |  |  |  |  |  |  |  |  | 0.008 (≈ 9.72 nM) | 0.008 (≈ 9.72 nM) | 0.008 (≈ 9.72 nM) | 0.062 | 0.125 | 0.125 | 8 (≈ 9720 nM) | 0.008 (≈ 9.72 nM) | MIC ([4]; Staphylococcus aureus, ATCC13709, read-out: Minimum inhibitory concentration, S. aureus ATCC 13709 variant): > 128 µg/mL |
